Tests used:
Assay type in all cases: cell-based, human
[1] = system: H1975 (EGFR L858R/T790M double mutation); experiment: Cell antiproliferative assay (CTG, 72 h), H1975; conditions: Homo sapiens
Protocol: (§1) Test Example 1 Cell Antiproliferative Assay
(§2) H1975: with EGFR: L858R/T790M double mutation; PC-9 with EGFR exon 19 deletion, HCC827 with exon 19 deletion mutation. CellCounting-Lite2.0, Trypsin EDTA, 37° C. CO2 incubator, cell counter, EnVision Serial No.1050454. II. Experimental preparation:
(§3) • (A) Trypsin EDTA was used to digest log-phase cells, medium was added to terminate the reaction, and a cell suspension was made by blowing and mixing with a pipette. • (B) Cell concentration was determined using Vi-cell, and a suspension of 15,000-25,000 cells per milliliter was made depending on the purpose of the experiment and the characteristics of the cells. • (C) After the cell suspension was prepared, it was gently mixed and 100 microliters per well was added so that the density of cells to be tested was 1500-2500 per well.
(§4) • (A) About 2 mg of compound was weighed, and the volume of DMSO required was calculated according to the formula: compound mass (mg)*compound purity (%)/compound molecular weight*1000 • (B) The inoculated cell culture plates were incubated in an incubator and the compounds with concentration gradient were added after about 24 hours. • (C)10 Mm of compound stock solution was diluted to […] with medium, and 50 Mm of compound solution was added sequentially to the second column of the deep-well plate, and […] of medium containing 0.5% DMSO was added to the third to eleventh columns. • (D) Gradient dilution: 125 μl of solution was pipetted from the second column and added to the third column, after mixing; another 125 μl of solution was pipetted from the third column and added to the fourth column, and the operation was repeated until the tenth column. • (E)25 μl of compound was pipetted from the deep-well plate into a 96-well culture plate using a multichannel pipette, and each compound was repeated three times on the 96-well plate. A maximum concentration of 10,000 nm with concentration gradient of 1:4 was eventually formed on the 96-well plate.
(§5) • (A)96-well plates were incubated in an incubator for 72 h. The effect of the compounds was observed under an inverted microscope. • (B)25 μl of CTG solution was added to each well, the plate was put on shaker for 10 minutes and the […] of each well was read.
(§6) The cell viability rate (% Cell Viability) was calculated using the following formula: • % Cell Viability=100%×(Lum_Sample-Lum_LC)/(Lum_HC-Lum_LC) • Lum_HC: Cell reading of 0.1% DMSO control • Lum_Sample: Cell reading with compound added • Lum_LC: Reading of Blank media • IC50 values were obtained by curve fitting with GraphPad Prism 8 software.

[2] = system: PC-9 (EGFR exon 19 deletion); experiment: Cell antiproliferative assay (CTG, 72 h), PC-9; conditions: Homo sapiens, Table 2, PC-9 cells
Protocol: as §1, §2, §3, §4, §5, §6

[3] = system: HCC827 (exon 19 deletion mutation); experiment: Cell antiproliferative assay (CTG, 72 h), HCC827; conditions: Homo sapiens, Table 2, HCC827 cells
Protocol: as §1, §2, §3, §4, §5, §6

[4] = NCI-H1975, 72 h, Table 2, H1975 cells

SMILES	IC50 [1, 4] [nM]	IC50 ([2]; PC-9, 72 h) [nM]	IC50 ([3]; HCC827, 72 h) [nM]	IC50 ([1]; NCI-H1975, Table 2, H1975 cells) [nM]	IC50 [2] [nM]	IC50 [3] [nM]
COc1cc(N2CCN(C(=O)CN3CCC(c4ccc(NC5CCC(=O)NC5=O)cc4)CC3)CC2)ccc1Nc1ncc(Cl)c(Nc2cc(F)ccc2F)n1 (stereo not drawn) [Compound T-132]	100 to 1000	≥ 1000	100 to 1000	–	–	–
COc1cc(N2CCN(C(=O)CN3CCC(c4ccc(NC5CCC(=O)NC5=O)cc4)CC3)CC2)ccc1Nc1ncc(Cl)c(Nc2cccc(C#N)c2)n1 (stereo not drawn) [Compound T-134]	10 to 100	≥ 1000	≥ 1000	–	–	–
COc1cc(N2CCN(C(=O)CN3CCC(c4ccc(NC5CCC(=O)NC5=O)cc4)CC3)CC2)ccc1Nc1ncc(C(F)(F)F)c(-c2cn(C)c3ccccc23)n1 (stereo not drawn) [Compound T-135]	100 to 1000	≥ 1000	100 to 1000	–	–	–
COc1cc(N2CCN(C(=O)CN3CCC(c4ccc(NC5CCC(=O)NC5=O)cc4)CC3)CC2)ccc1Nc1ncc(Cl)c(Nc2ccccc2C#N)n1 (stereo not drawn) [Compound T-139]	100 to 1000	≥ 1000	100 to 1000	–	–	–
O=C1CCC(Nc2ccc(C3CCN(CC(=O)N4CCN(c5ccc(-c6cc(F)c7c(c6)C(=O)N(C(C(=O)Nc6nccs6)c6ccccc6F)C7)cc5)CC4)CC3)cc2)C(=O)N1 (stereo not drawn) [Compound T-140]	10 to 100	100 to 1000	100 to 1000	–	–	–
COc1cc(N2CCN(C(=O)CN3CCC(c4ccc(NC5CCC(=O)NC5=O)cc4)CC3)CC2)ccc1Nc1ncc(Cl)c(Nc2ccccc2OC(=O)N(C)C)n1 (stereo not drawn) [Compound T-152]	–	–	–	100 to 1000	≥ 1000	≥ 1000
COc1cc(N2CCC[C@H](NC(=O)CN3CCC(c4ccc(NC5CCC(=O)NC5=O)cc4)CC3)C2)ccc1Nc1ncc(Cl)c(Nc2ccccc2C(C)=O)n1 (stereo partly drawn) [Compound T-166]	100 to 1000	≥ 1000	≥ 1000	–	–	–
COc1cc(N2CCC[C@H](N(C)CN3CCC(c4ccc(NC5CCC(=O)NC5=O)cc4)CC3)C2)ccc1Nc1ncc(Cl)c(Nc2ccccc2C(C)=O)n1 (stereo partly drawn) [Compound T-167]	100 to 1000	≥ 1000	≥ 1000	–	–	–
COc1cc(N2CC(N(C)C(=O)CN3CCC(c4ccc(NC5CCC(=O)NC5=O)cc4)CC3)C2)ccc1Nc1ncc(Cl)c(Nc2ccccc2C(C)=O)n1 (stereo not drawn) [Compound T-170]	100 to 1000	≥ 1000	≥ 1000	–	–	–
COc1cc(N2CC[C@@H](N(C)C(=O)CN3CCC(c4ccc(NC5CCC(=O)NC5=O)cc4)CC3)C2)ccc1Nc1ncc(Cl)c(Nc2ccccc2C(C)=O)n1 (stereo partly drawn) [Compound T-171]	10 to 100	≥ 1000	100 to 1000	–	–	–
COc1cc(N2CC[C@@H](NC(=O)CN3CCC(c4ccc(NC5CCC(=O)NC5=O)cc4)CC3)C2)ccc1Nc1ncc(Cl)c(Nc2ccccc2C(C)=O)n1 (stereo partly drawn) [Compound T-173]	100 to 1000	≥ 1000	100 to 1000	–	–	–
COc1cc(N2CC[C@H](NC(=O)CN3CCC(c4ccc(NC5CCC(=O)NC5=O)cc4)CC3)C2)ccc1Nc1ncc(Cl)c(Nc2ccccc2C(C)=O)n1 (stereo partly drawn) [Compound T-174]	100 to 1000	≥ 1000	≥ 1000	–	–	–
CC(=O)c1ccccc1Nc1nc(Nc2ccc(N3CCN(C(=O)CN4CCC(c5ccc(NC6CCC(=O)NC6=O)cc5)CC4)CC3)cc2OC(C)C)ncc1Cl (stereo not drawn) [Compound T-179]	100 to 1000	≥ 1000	≥ 1000	–	–	–
C=CC(=O)Nc1cc(Nc2ncc(C(F)(F)F)c(Nc3ccccc3)n2)c(OC)cc1N(C)CCN(C)C(=O)CN1CCC(c2ccc(NC3CCC(=O)NC3=O)cc2)CC1 (stereo not drawn) [Compound T-180]	100 to 1000	≥ 1000	≥ 1000	–	–	–
COc1cc(N2CCN(C(=O)CN3CCC(c4cccc(NC5CCC(=O)NC5=O)c4)CC3)CC2)ccc1Nc1ncc(Cl)c(Nc2ccccc2C(C)=O)n1 (stereo not drawn) [Compound T-181]	100 to 1000	100 to 1000	≥ 1000	–	–	–
COc1cc(N2CC3CN(C(=O)CN4CCC(c5ccc(NC6CCC(=O)NC6=O)cc5)CC4)CC3C2)ccc1Nc1ncc(Cl)c(Nc2ccccc2C(C)=O)n1 (stereo not drawn) [Compound T-188]	10 to 100	100 to 1000	100 to 1000	–	–	–

From US20250129086A1, “COMPOUND FOR DEGRADING EGFR PROTEIN AND USE THEREOF” (TYK MEDICINES, INC., priority 2021, published 2025)
